# Experimental data: patent publication US20230212296A1, “SYSTEMS AND METHODS FOR TREATING CANCER” (Arizona Board of Regents on Behalf of the University of …, priority 2020, published 2023)
# Columns and labels:
# [1] = tested on: HA-HIF-1α (wild-type)
# [2] = tested on: recombinant GST-HIF-1α
# [3] = target: T1, PIM1 (Homo sapiens, UniProt P11309); assay type: biochemical; conditions: immunoprecipitated HA-HIF-1α, recombinant PIM1 (FIG. 4D)
# Procedure: In vivo: HA-HIF-1α or its mutant (T455A) were immunoprecipitated with anti-HA antibodies. Immune complexes were washed three times in lysis buffer, then washed twice in 1× kinase buffer and incubated with 0.1 μg of recombinant active PIM1 and 100 μmol/L of ATP for 30 min at 25° C. Reactions were stopped by washing twice in a cold kinase buffer and boiling in 2×SDS loading buffer. The sample was separated on a SDS-polyacrylamide gel and subjected to Western blot analysis with anti-phospho HIF-1α (T455) antibody.
# [4] = tested on: HIF-1α; assay: Immunoblotting of HIF-1α and phospho-T455 in Dox-PIM1 PC3 cells; assay type: cell-based; conditions: Dox-PIM1 PC3, dox 24 h, AZD1208 3 μM for 6 h (FIG. 3C)
# [5] = tested on: HIF-1; assay: HIF-1 reporter (HRE-Luc) assay in Dox-PIM1 cells; assay type: cell-based; conditions: Dox 24 h, then AZD1208 for 4 h, normoxia (FIG. 3D)
# [6] = tested on: HIF-1 target genes; assay: Hypoxia-inducible gene expression (RT2 profiler array, qRT-PCR) in PC3 Dox-PIM1 cells; assay type: cell-based; conditions: eleven genes; Dox 24 h, ± AZD1208 for 8 h, normoxia (FIG. 3F)
# Procedure: Hypoxia-responsive gene expression was measured and quantified using RT^2 hypoxia-signaling PCR profiler arrays using the manufacturer's software (Qiagen). All other qRT-PCR reactions were performed using qPCRBIO SyGreen Blue Mix (PCR Biosystems), according to the manufacturer's protocol. Validated primer sets (QuantiTech primer assays; Qiagen) for each of the following genes were purchased to measure gene expression: VEGF-A, angiopoietin like 4 (ANGPTL4), and hexokinase 2 (HK2). HIF1α, PIM1 and Actin primers were purchased from IDT. Actin was used to normalize.
# [7] = tested on: SW620 cells; assay: MTT cell viability, parental SW620 cells; assay type: cell-based; conditions: parental SW620, increasing doses, 24 h (FIG. 6B)
# Procedure: (§1) Response to drug: Twenty thousand cells were plated onto a 96-well plate and allowed to grow for 24 h prior to addition of the drug, and MTT assays were performed after 24 h incubation with the indicated drugs. For MTT assays, media was removed from the cells by aspiration and 50 μL serum-free DMEM and 50 μL MTT solution were added to each well, and plates were incubated for 4 h at 37° C. After incubation, 150 μL of DMSO was added to each well for 15 minutes and absorbance was read at 540 nm.
# [8] = tested on: B24 and C34 cell lines; assay: MTT cell viability, HIF-1α T455D mutant SW620 lines B24 and C34; assay type: cell-based; conditions: B24 and C34, increasing doses, 24 h (FIG. 6B)
# Procedure: as §1
# [9] = tested on: SW620 tumors; assay: SW620 xenograft in SCID mice; assay type: in vivo
# Procedure: (§2) FIG. 6: Five million parental, B24, or C34 SW620 cells in PBS were injected subcutaneously into the rear flanks of mice. Once the tumors reached a volume of approximately 100 mm^3, the mice were randomized for daily treatment with vehicle or AZD1208 (30 mg/kg/day, p.o.) for up to 2 weeks or until tumor burden reached a maximum volume of 2 cm^3. Tumors were measured every 2-3 days via caliper. Upon sacrifice, tumors were harvested for IHC staining with PIM1, HIF-1α, and CC3, and mRNA was collected for analysis.
# (§3) For both, the following formula was used to calculate tumor volume by caliper measurements:
# (§4) V=(tumor width)^2×tumor length/2.
# (§5) These lines were validated by Sanger sequencing.
# [10] = tested on: B24 and C34 tumors; assay: B24 / C34 (HIF-1α T455D) xenografts in SCID mice; assay type: in vivo
# Procedure: as §2, §3, §4, §5
# [11] = target: T1, PIM1; assay type: biochemical; set-up: Recombinant full-length GST-PIM1 was incubated with recombinant GST-HIF-1α; GST; conditions: in the presence of a PIM inhibitor (AZD1208 100 nM per method) (FIG. 4A)
# Procedure: In vitro: Recombinant full-length GST-PIM1 was incubated with recombinant GST-HIF-1α, GST (negative control), or dephosphorylated myelin basic protein (MBP) in the presence or absence of AZD1208 (100 nM) and ^32P-labeled ATP in kinase assay buffer (20 mM MOPS [pH 7.0] containing 100 mM NaCl, 10 mmol/L MgCl2, and 2 mmol/L dithiothreitol). Reactions were incubated at 37° C. for 60 min prior to the addition of 5× Laemmli sample buffer. Samples were separated by SDS-PAGE and gels were stained with Coomassie prior to autoradiography or preparation for mass spectrometry.
# T1 sequence (P11309 whole entry): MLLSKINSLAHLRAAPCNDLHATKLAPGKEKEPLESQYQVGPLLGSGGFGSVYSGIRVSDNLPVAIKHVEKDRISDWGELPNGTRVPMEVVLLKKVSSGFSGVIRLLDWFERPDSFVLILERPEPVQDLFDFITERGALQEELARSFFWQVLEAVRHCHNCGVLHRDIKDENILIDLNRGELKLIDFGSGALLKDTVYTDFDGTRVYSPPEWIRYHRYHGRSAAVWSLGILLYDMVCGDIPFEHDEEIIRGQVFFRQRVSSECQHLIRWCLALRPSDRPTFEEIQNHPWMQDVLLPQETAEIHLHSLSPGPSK
Compound,"kinase assay on immunoprecipitated HA-HIF-1α, western blot with phospho-T455 antibody [1]",in vitro kinase assay (32P-ATP autoradiography; mass spectrometry of phosphorylation sites) [2],phosphorylation of wild-type HIF-1α at Thr455 by PIM1 [3],ability of PIM1 to increase HIF-1α protein levels [4],PIM1-induced increase of HIF-1 activity (HRE-Luc normalized to Renilla-Luc) [5],transcript levels of hypoxia-inducible genes upregulated at least 3-fold by PIM1 [6],cell viability (MTT) [7],"cell viability (MTT), sensitivity versus parental SW620 [8]","HIF-1α levels in tumors (IHC) ([9]; SW620 tumors, AZD1208 30 mg/kg (FIG. 6I))","apoptosis (cleaved caspase-3 staining) ([9]; SW620 tumors, AZD1208 30 mg/kg (FIG. 6J))","expression of pro-angiogenic genes VEGF-A and ANGPT4 in tumor tissue (RT-PCR) ([9]; SW620 tumors, AZD1208 30 mg/kg (FIG. 6K))","tumor volume ([9]; SW620 tumors, AZD1208 30 mg/kg/day p.o. (FIG. 6G))","tumor vasculature (H&E staining) ([9]; SW620 xenografts, AZD1208 30 mg/kg (FIG. 6H))","expression of HIF-1 target genes in tumor tissue (RT-PCR) ([10]; B24 and C34 tumors, AZD1208 30 mg/kg (FIG. 6K))","HIF-1α levels in tumors (IHC) ([10]; B24 or C34 tumors, AZD1208 30 mg/kg (FIG. 6I))","apoptosis (cleaved caspase-3 staining) ([10]; B24 or C34 tumors, AZD1208 30 mg/kg (FIG. 6J))","tumor growth ([10]; B24 or C34 xenografts, AZD1208 30 mg/kg/day p.o. (FIG. 6G))","tumor vasculature (H&E staining) ([10]; C34 and B24 tumors, AZD1208 30 mg/kg (FIG. 6H))",phosphorylation of HIF-1α by PIM1 (autoradiography) [11]
recombinant full-length GST-PIM1,"Wild-type HIF-1α displayed robust phosphorylation at Thr455 by PIM1, which was blocked by AZD1208","Autoradiography revealed that PIM1 is able to phosphorylate HIF-1α, and phosphorylation was lost in the presence of a PIM inhibitor",,,,,,,,,,,,,,,,,
N[C@@H]1CCCN(c2c(/C=C3\SC(=O)NC3=O)cccc2-c2ccccc2)C1 [AZD1208],,,blocked,blocked the ability of PIM1 to increase HIF-1α protein levels,reversed,significantly reduced,significant and dose-dependent reduction in viability,less sensitive,significantly reduced,increased,reduced,significantly reduced,disrupted tumor vasculature,no effect,refractory to PIM inhibition,no significant apoptosis was observed,unable to slow the growth,regular vasculature was observed,phosphorylation was lost
